# From the supplement of paper PMC10307832
# Experiments:
# Test in all cases: relative viability (nuclei count vs DMSO), 5 days (fraction); higher = more cells survive
# GSK-J4 = compound: CCOC(=O)CCNc1cc(N2CCc3ccccc3CC2)nc(-c2ccccn2)n1 [GSK-J4]
# In short: (§1)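 Vehicle-anchored 1536-well plates of lung cancer cell lines, held overnight at 37 °C, were pinned with five library-drug doses (not always all listed) spaced by √10. No medium change followed over the next 5 days, after which the cells were fixed, permeabilised and Hoechst-stained together and imaged at 4×. Nuclei were counted with MetaXpress, and viability is treated-well nuclei over vehicle-well nuclei, taken as a median across plates. Plates passed with control CV below 25% and at least one doubling.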
# AZ3146 = compound: CN1CCC(CC1)OC2=CC(=C(C=C2)NC3=NC=C4C(=N3)N(C(=O)N4C)C5CCCC5)OC [AZ3146]
# In short: as §1
# GSK-J4 + OSI-027 = compound: CCOC(=O)CCNc1cc(N2CCc3ccccc3CC2)nc(-c2ccccn2)n1 [GSK-J4] + COc1cccc2cc(-c3nc([C@H]4CC[C@H](C(=O)O)CC4)n4ncnc(N)c34)[nH]c12 [OSI-027] (partner 0.5 µM)
# In short: (§2)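 Lung cancer cell lines, seeded in 1536-well plates, were treated the following day by pin tool with a single drug or with five library-drug doses (not always all listed) in √10 steps on top of a fixed anchor-drug dose. Cells were fixed and nuclei stained in one step after 5 days, and nuclei were counted. Relative viability is the nuclei count for treated wells divided by that for vehicle wells, reported as medians of duplicate plates.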
# AZ3146 + Pemetrexed = compound: CN1CCC(CC1)OC2=CC(=C(C=C2)NC3=NC=C4C(=N3)N(C(=O)N4C)C5CCCC5)OC [AZ3146] + Nc1nc2[nH]cc(CCc3ccc(C(=O)N[C@@H](CCC(=O)O)C(=O)O)cc3)c2c(=O)[nH]1 [Pemetrexed] (partner 0.2 µM)
# In short: as §2
Cell Line,relative viability (GSK-J4; 0.5 µM),relative viability (GSK-J4; 1.581 µM),relative viability (GSK-J4; 5 µM),relative viability (GSK-J4; 15.81 µM),relative viability (GSK-J4; 50 µM),relative viability (AZ3146; 0.08 µM),relative viability (AZ3146; 0.253 µM),relative viability (AZ3146; 0.8 µM),relative viability (AZ3146; 2.53 µM),relative viability (AZ3146; 8 µM),relative viability (GSK-J4 + OSI-027; first compound 0.5 µM),relative viability (GSK-J4 + OSI-027; first compound 1.581 µM),relative viability (GSK-J4 + OSI-027; first compound 5 µM),relative viability (GSK-J4 + OSI-027; first compound 15.81 µM),relative viability (GSK-J4 + OSI-027; first compound 50 µM),relative viability (AZ3146 + Pemetrexed; first compound 0.08 µM),relative viability (AZ3146 + Pemetrexed; first compound 0.253 µM),relative viability (AZ3146 + Pemetrexed; first compound 0.8 µM),relative viability (AZ3146 + Pemetrexed; first compound 2.53 µM),relative viability (AZ3146 + Pemetrexed; first compound 8 µM)
NCI-H358,0.981,0.843,0.977,0.819,0.807,0.977,0.923,0.873,1.1,0.785,0.765,0.68,0.795,0.504,0.617,0.153,0.168,0.192,0.171,0.156
NCI-H441,0.967,0.85,0.827,0.92,0.796,0.939,1.18,1.01,1.05,1.03,0.673,0.472,0.567,0.536,0.433,0.256,0.251,0.251,0.266,0.274
NCI-H460,0.957,0.8,0.767,0.981,1.01,0.94,1.01,1.02,0.997,0.78,0.586,0.494,0.537,0.508,0.522,0.0552,0.0628,0.0797,0.06,0.0682
NCI-H520,0.985,0.621,0.857,0.702,0.853,0.875,0.971,0.832,1.04,0.999,0.33,0.22,0.278,0.248,0.257,0.843,0.735,0.647,0.543,0.422
NCI-H522,1.06,0.746,0.789,0.75,0.559,0.917,0.943,0.926,0.899,0.938,0.78,0.637,0.541,0.585,0.543,0.917,0.905,0.898,1.09,0.968
NCI-H596,1.04,0.833,0.92,0.889,0.903,0.985,0.841,0.931,0.979,0.963,0.72,0.767,0.857,0.464,0.597,0.478,0.449,0.574,0.486,0.556
NCI-H647,0.966,0.832,0.742,0.886,0.936,0.777,0.919,0.94,1.07,0.92,0.674,0.513,0.391,0.594,0.774,0.22,0.178,0.188,0.204,0.115
NCI-H650,0.931,0.653,0.494,0.832,0.751,0.776,0.822,0.867,1.02,1.03,0.508,0.447,0.356,0.427,0.294,0.871,0.747,0.78,0.949,0.948
NCI-H661,0.969,0.922,0.904,0.927,0.723,1.02,0.988,0.92,0.98,1.05,0.694,0.645,0.559,0.542,0.435,0.939,0.894,0.956,0.92,0.818
NCI-H838,1.04,0.895,0.635,0.887,0.883,0.994,0.939,0.914,0.963,0.734,0.452,0.353,–,0.362,0.385,0.233,0.239,0.283,0.269,0.211
NCI-H1355,0.979,0.916,0.821,0.902,0.943,0.941,0.971,1,1.07,0.961,0.438,0.316,0.35,0.29,0.278,1.02,1.02,1.03,1.12,1.13
NCI-H1395,1.05,0.893,0.827,0.964,0.81,0.958,0.879,0.86,0.985,0.85,0.65,0.641,0.515,0.591,0.569,0.783,0.746,–,0.91,0.661
NCI-H1437,1.01,0.909,0.923,1.01,0.609,0.887,0.936,0.953,1.03,0.983,0.899,0.761,0.806,0.882,0.648,0.283,0.327,0.3,0.346,0.294
NCI-H1563,0.952,1.1,0.892,0.894,0.985,0.837,0.973,1.04,0.902,0.909,0.796,0.766,0.659,0.659,0.748,0.673,0.645,0.717,0.797,0.825
NCI-H1648,0.992,–,1.47,0.496,0.807,–,0.654,0.924,0.921,1.03,0.239,–,0.308,0.262,0.23,–,–,1.02,0.801,0.62
NCI-H1650,1.11,0.791,0.889,0.808,0.682,0.966,0.873,0.812,0.864,0.652,0.732,0.365,0.673,0.606,0.553,0.323,0.324,0.366,0.376,0.386

Cell Line,relative viability (GSK-J4; 0.5 µM),relative viability (GSK-J4; 1.581 µM),relative viability (GSK-J4; 5 µM),relative viability (GSK-J4; 15.81 µM),relative viability (GSK-J4; 50 µM),relative viability (AZ3146; 0.08 µM),relative viability (AZ3146; 0.253 µM),relative viability (AZ3146; 0.8 µM),relative viability (AZ3146; 2.53 µM),relative viability (AZ3146; 8 µM),relative viability (GSK-J4 + OSI-027; first compound 0.5 µM),relative viability (GSK-J4 + OSI-027; first compound 1.581 µM),relative viability (GSK-J4 + OSI-027; first compound 5 µM),relative viability (GSK-J4 + OSI-027; first compound 15.81 µM),relative viability (GSK-J4 + OSI-027; first compound 50 µM),relative viability (AZ3146 + Pemetrexed; first compound 0.08 µM),relative viability (AZ3146 + Pemetrexed; first compound 0.253 µM),relative viability (AZ3146 + Pemetrexed; first compound 0.8 µM),relative viability (AZ3146 + Pemetrexed; first compound 2.53 µM),relative viability (AZ3146 + Pemetrexed; first compound 8 µM)
NCI-H1651,0.986,0.856,0.973,0.948,0.96,0.902,0.879,0.968,0.952,1.02,0.79,0.734,0.687,0.706,0.721,0.58,0.579,0.463,0.569,0.595
NCI-H1666,0.977,0.79,1.19,1,0.804,1.09,0.953,1.02,1.05,1.05,0.836,0.738,1.15,0.763,0.648,0.771,0.825,0.83,0.901,0.788
NCI-H1734,0.9,0.909,0.686,0.765,0.807,0.96,1.09,0.954,1.04,0.98,0.544,0.518,0.489,0.445,0.372,0.414,0.433,0.388,0.428,0.413
NCI-H1755,0.969,0.847,0.728,0.929,0.916,0.933,1.02,0.955,0.994,0.984,0.623,0.468,0.571,0.553,0.509,0.666,0.532,0.463,0.509,0.496
NCI-H1792,0.932,0.606,0.925,0.697,0.832,0.759,0.776,0.93,0.841,0.905,0.671,–,0.778,0.485,0.681,0.606,0.871,0.68,1.04,0.701
NCI-H1793,1.06,0.786,0.727,0.48,0.443,0.902,0.805,0.812,1.07,0.691,0.36,0.215,0.258,0.167,0.2,1.02,0.792,0.565,1.16,0.51
NCI-H1915,0.924,0.856,–,0.969,1.12,0.9,1.04,1.07,1.03,0.991,0.598,0.578,–,0.595,0.657,0.502,0.517,0.602,0.511,0.49
NCI-H1944,0.939,0.874,0.828,0.734,0.931,0.777,0.919,1.07,1.03,0.982,0.466,0.399,0.309,0.296,0.355,0.484,0.616,0.636,0.646,0.705
NCI-H1975,0.972,0.857,–,0.953,1.09,0.859,0.993,1.06,1.02,0.844,0.692,0.677,0.46,0.675,0.681,0.312,0.311,0.294,0.295,0.244
NCI-H1993,1.13,1.09,1.08,0.756,0.533,0.926,0.843,1,1.03,0.489,0.536,0.485,0.646,0.563,0.527,0.567,0.542,0.539,0.619,0.561
NCI-H2009,0.951,0.89,0.733,0.966,0.545,0.928,0.997,1.03,1.02,0.713,0.573,0.491,0.601,0.527,0.283,1.05,0.996,1.04,0.989,1.03
NCI-H2023,0.942,0.853,1.07,0.906,0.856,0.935,0.912,0.969,0.871,0.296,0.409,–,0.403,0.321,0.194,0.207,0.238,0.226,0.216,0.129
NCI-H2085,1.02,0.953,0.884,0.924,0.955,1,0.987,0.972,0.97,0.992,0.796,0.66,0.569,0.459,0.515,0.923,0.824,0.869,0.887,0.705
NCI-H2087,0.96,0.824,0.82,1.04,0.856,0.877,1.08,1.03,1.2,0.917,0.552,–,0.851,0.542,0.421,0.648,0.683,0.684,0.67,0.661
NCI-H2126,0.973,0.944,1.02,0.906,0.83,0.972,1,0.99,1.06,0.919,0.706,0.7,0.949,0.576,0.45,0.613,0.662,0.618,0.677,0.696
NCI-H2170,1,0.89,0.893,0.916,0.969,0.959,0.991,0.994,1.01,0.96,0.692,0.696,0.718,0.702,0.524,0.269,0.248,0.26,0.268,0.281
